# In PubChem BioAssay AID2060886 (Molecular Pharmacology Branch, DTP, NCI, 2025):
# Test system: 653999-131-R-J2-PDC complex spheroids, growth inhibition
# Assay: Anticancer human tumor 653999-131-R-J2-PDC patient-derived lung adenocarcinoma cell line growth inhibition [RAS]
# Details: for IC50: curve of first compound; for viability, T/C: stronger effect = lower value
# In short: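 Tumour cells grown as complex spheroids with HUVEC endothelial cells and mesenchymal stem cells, treated with RAS pathway inhibitor combinations. Each agent spans half-log steps from near clinical Cmax, or 10 microM where Cmax is unknown.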
# [1] = second compound 0.000949 µM, first compound 0.0316 µM
# [2] = second compound 0.000949 µM, first compound 0.1 µM
# [3] = second compound 0.000949 µM, first compound 0.316 µM
# [4] = second compound 0.000949 µM, first compound 1 µM
# [5] = second compound 0.000949 µM, first compound 3.16 µM
# [6] = second compound 0.000949 µM, first compound 10 µM
# [7] = second compound 0.003 µM, first compound 0.0316 µM
# [8] = second compound 0.003 µM, first compound 0.1 µM
# [9] = second compound 0.003 µM, first compound 0.316 µM
# [10] = second compound 0.003 µM, first compound 1 µM
# [11] = second compound 0.003 µM, first compound 3.16 µM
# [12] = second compound 0.003 µM, first compound 10 µM
# [13] = second compound 0.00949 µM, first compound 0.0316 µM
# [14] = second compound 0.00949 µM, first compound 0.1 µM
# [15] = second compound 0.00949 µM, first compound 0.316 µM
# [16] = second compound 0.00949 µM, first compound 1 µM
# [17] = second compound 0.00949 µM, first compound 3.16 µM
# [18] = second compound 0.00949 µM, first compound 10 µM
# [19] = second compound 0.03 µM, first compound 0.0316 µM
# [20] = second compound 0.03 µM, first compound 0.1 µM
# [21] = second compound 0.03 µM, first compound 0.316 µM
# [22] = second compound 0.03 µM, first compound 1 µM
# [23] = second compound 0.03 µM, first compound 3.16 µM
# [24] = second compound 0.03 µM, first compound 10 µM
# [25] = second compound 0.0949 µM, first compound 0.0316 µM
# [26] = second compound 0.0949 µM, first compound 0.1 µM
# [27] = second compound 0.0949 µM, first compound 0.316 µM
# [28] = second compound 0.0949 µM, first compound 1 µM
# [29] = second compound 0.0949 µM, first compound 3.16 µM
# [30] = second compound 0.0949 µM, first compound 10 µM
# [31] = second compound 0.3 µM, first compound 0.0316 µM
# [32] = second compound 0.3 µM, first compound 0.1 µM
# [33] = second compound 0.3 µM, first compound 0.316 µM
# [34] = second compound 0.3 µM, first compound 1 µM
# [35] = second compound 0.3 µM, first compound 3.16 µM
# [36] = second compound 0.3 µM, first compound 10 µM
# 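Further: spheroids exposed to the agents for seven days before the readout.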
smiles,measurement,setting,value
CC1(O)CCCC1n1c(=O)c(C(F)F)cc2cnc(NC3CCN(S(C)(=O)=O)CC3)nc21 (centres undefined) + CCn1c(-c2cc(N3CCN(C)CC3)cnc2C(C)OC)c2c3cc(ccc31)-c1csc(n1)CC(NC(=O)C1CC1C)C(=O)N1CCCC(N1)C(=O)OCC(C)(C)C2,IC50,second compound 0.000949 µM,8400 nM
same,IC50,second compound 0.003 µM,57.9 nM
same,IC50,second compound 0.00949 µM,< 31.6 nM
same,IC50,second compound 0.03 µM,< 31.6 nM
same,IC50,second compound 0.0949 µM,< 31.6 nM
same,IC50,second compound 0.3 µM,< 31.6 nM
same,"viability, T/C",[1],67.8%
same,"viability, T/C",[2],48.4%
same,"viability, T/C",[3],57.4%
same,"viability, T/C",[4],49%
same,"viability, T/C",[5],73%
same,"viability, T/C",[6],37.7%
same,"viability, T/C",[7],52.4%
same,"viability, T/C",[8],49.5%
same,"viability, T/C",[9],40.1%
same,"viability, T/C",[10],49.9%
same,"viability, T/C",[11],47.2%
same,"viability, T/C",[12],38.5%
same,"viability, T/C",[13],43%
same,"viability, T/C",[14],28.5%
same,"viability, T/C",[15],28.5%
same,"viability, T/C",[16],28.1%
same,"viability, T/C",[17],39%
same,"viability, T/C",[18],29.1%
same,"viability, T/C",[19],36.6%
same,"viability, T/C",[20],23.9%
same,"viability, T/C",[21],25.8%
same,"viability, T/C",[22],24.9%
same,"viability, T/C",[23],30.7%
same,"viability, T/C",[24],20%
same,"viability, T/C",[25],27.2%
same,"viability, T/C",[26],20.3%
same,"viability, T/C",[27],18.8%
same,"viability, T/C",[28],19.4%
same,"viability, T/C",[29],26.7%
same,"viability, T/C",[30],24.7%
same,"viability, T/C",[31],19.2%
same,"viability, T/C",[32],18.5%
same,"viability, T/C",[33],25.2%
same,"viability, T/C",[34],20.8%
same,"viability, T/C",[35],20.3%
same,"viability, T/C",[36],21%
CCC(CC)c1cc(NC2CCC(N)C2)n2nccc2n1 (centres undefined) + CCn1c(-c2cc(N3CCN(C)CC3)cnc2C(C)OC)c2c3cc(ccc31)-c1csc(n1)CC(NC(=O)C1CC1C)C(=O)N1CCCC(N1)C(=O)OCC(C)(C)C2,IC50,second compound 0.000949 µM,1280 nM
same,IC50,second compound 0.003 µM,722 nM
same,IC50,second compound 0.00949 µM,195 nM
same,IC50,second compound 0.03 µM,< 31.6 nM
same,IC50,second compound 0.0949 µM,< 31.6 nM
same,IC50,second compound 0.3 µM,< 31.6 nM
same,"viability, T/C",[1],84.6%
same,"viability, T/C",[2],101%
same,"viability, T/C",[3],91.2%
same,"viability, T/C",[4],59.9%
same,"viability, T/C",[5],12%
same,"viability, T/C",[6],15%
same,"viability, T/C",[7],59.1%
same,"viability, T/C",[8],88.6%
same,"viability, T/C",[9],84.2%
same,"viability, T/C",[10],39.2%
same,"viability, T/C",[11],10.5%
same,"viability, T/C",[12],18.8%
same,"viability, T/C",[13],55.8%
same,"viability, T/C",[14],56.5%
same,"viability, T/C",[15],45.6%
same,"viability, T/C",[16],26.4%
same,"viability, T/C",[17],16.4%
same,"viability, T/C",[18],17.4%
same,"viability, T/C",[19],38.8%
same,"viability, T/C",[20],51%
same,"viability, T/C",[21],29.6%
same,"viability, T/C",[22],20.4%
same,"viability, T/C",[23],12.5%
same,"viability, T/C",[24],18.8%
same,"viability, T/C",[25],29.3%
same,"viability, T/C",[26],27.8%
same,"viability, T/C",[27],28.9%
same,"viability, T/C",[28],12.1%
same,"viability, T/C",[29],11.7%
same,"viability, T/C",[30],18.9%
same,"viability, T/C",[31],29.8%
same,"viability, T/C",[32],24.9%
same,"viability, T/C",[33],26.4%
same,"viability, T/C",[34],12.7%
same,"viability, T/C",[35],13.3%
same,"viability, T/C",[36],17.5%
